ChEMBL document CHEMBL1156502, “Stabilized immune modulatory RNA compounds as agonists of Toll-like receptors 7 and 8” (Proc Natl Acad Sci U S A, 2007)
Activity calls are given as the source filed them. The calls are words filed in the database; no cut-off is given here.

Assays:
PBMC [1] = experiment: Induction of IL12 secretion in human PBMC after 24 hrs by Luminex Multiplex assay; type: functional, cell-based
PBMC [2] = experiment: Induction of IFNalpha secretion in human PBMC after 24 hrs by Luminex Multiplex assay; type: functional, cell-based
PBMC [3] = experiment: Induction of IFN-gamma secretion in human PBMC after 24 hrs by Luminex Multiplex assay; type: functional, cell-based
Cynomolgus monkey [4] = experiment: Induction of immune response in cynomolgus monkey assessed as increase in number of peripheral blood neutrophils at 5 mg/kg, sc within 24 hrs; type: functional, organism-based; set-up: dose 5 mg/kg; details: Macaca fascicularis
Cynomolgus monkey [5] = experiment: Induction of immune response in cynomolgus monkey assessed as increase in number of peripheral blood monocytes at 5 mg/kg, sc within 24 hrs; type: functional, organism-based; set-up: dose 5 mg/kg; details: Macaca fascicularis
Cynomolgus monkey [6] = experiment: Increase in CD69 expression on CD3+ lymphocytes in cynomolgus monkey at 5 mg/kg, sc after 24 hrs by flow cytometry relative to control; type: functional, organism-based; set-up: dose 5 mg/kg; details: Macaca fascicularis
Cynomolgus monkey [7] = experiment: Increase in CD69 expression on CD16+ NK cells in cynomolgus monkey at 5 mg/kg, sc after 24 hrs by flow cytometry relative to control; type: functional, organism-based; set-up: dose 5 mg/kg; details: Macaca fascicularis
Cynomolgus monkey [8] = experiment: Increase in CD69 expression on CD14+ monocytes in cynomolgus monkey at 5 mg/kg, sc after 24 hrs by flow cytometry relative to control; type: functional, organism-based; set-up: dose 5 mg/kg; details: Macaca fascicularis
Cynomolgus monkey [9] = experiment: Elevation of IFNalpha in cynomolgus monkey plasma at 5 mg/kg, sc after 24 hrs; type: functional, organism-based; set-up: dose 5 mg/kg; details: Macaca fascicularis
Cynomolgus monkey [10] = experiment: Elevation of IP10 in cynomolgus monkey plasma at 5 mg/kg, sc after 24 hrs; type: functional, organism-based; set-up: dose 5 mg/kg; details: Macaca fascicularis
[11] = Stability in 1% human serum assessed as full length product after 10 mins; type: ADME, cell-free; details: read-out: Stability
[12] = target: T1, Toll-like receptor 8 (Homo sapiens) (UniProt Q9NR97); experiment: Activation of human TLR8 expressed in HEK293 cells assessed as increase in NF-kappaB activation at 100 ug/ml by SEAP assay; type: cell-based
T1 sequence (whole entry): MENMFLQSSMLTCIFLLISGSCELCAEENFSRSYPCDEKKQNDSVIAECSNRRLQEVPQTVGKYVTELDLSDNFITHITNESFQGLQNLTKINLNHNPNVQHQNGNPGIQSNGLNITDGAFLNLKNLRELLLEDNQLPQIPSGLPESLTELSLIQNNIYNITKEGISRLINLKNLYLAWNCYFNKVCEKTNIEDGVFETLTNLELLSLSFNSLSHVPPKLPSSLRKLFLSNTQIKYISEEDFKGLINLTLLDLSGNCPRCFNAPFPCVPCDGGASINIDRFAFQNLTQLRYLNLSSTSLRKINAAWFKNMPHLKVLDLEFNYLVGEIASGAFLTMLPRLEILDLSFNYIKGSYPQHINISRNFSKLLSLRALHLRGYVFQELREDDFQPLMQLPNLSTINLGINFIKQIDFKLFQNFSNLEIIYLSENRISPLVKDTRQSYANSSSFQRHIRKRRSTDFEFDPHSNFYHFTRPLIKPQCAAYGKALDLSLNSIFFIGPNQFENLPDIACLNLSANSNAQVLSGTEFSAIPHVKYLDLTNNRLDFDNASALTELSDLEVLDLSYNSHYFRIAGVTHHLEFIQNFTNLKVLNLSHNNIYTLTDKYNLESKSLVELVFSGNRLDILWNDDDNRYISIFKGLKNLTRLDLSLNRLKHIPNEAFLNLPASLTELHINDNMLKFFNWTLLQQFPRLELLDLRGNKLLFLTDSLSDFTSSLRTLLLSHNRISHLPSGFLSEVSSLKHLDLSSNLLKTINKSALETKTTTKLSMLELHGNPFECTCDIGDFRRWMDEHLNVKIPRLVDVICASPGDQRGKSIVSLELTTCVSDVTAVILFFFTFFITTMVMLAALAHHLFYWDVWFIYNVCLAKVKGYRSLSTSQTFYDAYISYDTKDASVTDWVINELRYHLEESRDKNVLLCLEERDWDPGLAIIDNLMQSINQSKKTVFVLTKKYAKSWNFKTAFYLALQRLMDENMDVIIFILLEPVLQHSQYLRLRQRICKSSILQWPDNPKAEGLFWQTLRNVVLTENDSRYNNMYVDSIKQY

[13] = target: T2, Toll-like receptor 7 (Homo sapiens) (UniProt Q9NYK1); experiment: Activation of human TLR7 expressed in HEK293 cells assessed as increase in NF-kappaB activation at 100 ug/ml by SEAP assay; type: cell-based
T2 sequence (whole entry): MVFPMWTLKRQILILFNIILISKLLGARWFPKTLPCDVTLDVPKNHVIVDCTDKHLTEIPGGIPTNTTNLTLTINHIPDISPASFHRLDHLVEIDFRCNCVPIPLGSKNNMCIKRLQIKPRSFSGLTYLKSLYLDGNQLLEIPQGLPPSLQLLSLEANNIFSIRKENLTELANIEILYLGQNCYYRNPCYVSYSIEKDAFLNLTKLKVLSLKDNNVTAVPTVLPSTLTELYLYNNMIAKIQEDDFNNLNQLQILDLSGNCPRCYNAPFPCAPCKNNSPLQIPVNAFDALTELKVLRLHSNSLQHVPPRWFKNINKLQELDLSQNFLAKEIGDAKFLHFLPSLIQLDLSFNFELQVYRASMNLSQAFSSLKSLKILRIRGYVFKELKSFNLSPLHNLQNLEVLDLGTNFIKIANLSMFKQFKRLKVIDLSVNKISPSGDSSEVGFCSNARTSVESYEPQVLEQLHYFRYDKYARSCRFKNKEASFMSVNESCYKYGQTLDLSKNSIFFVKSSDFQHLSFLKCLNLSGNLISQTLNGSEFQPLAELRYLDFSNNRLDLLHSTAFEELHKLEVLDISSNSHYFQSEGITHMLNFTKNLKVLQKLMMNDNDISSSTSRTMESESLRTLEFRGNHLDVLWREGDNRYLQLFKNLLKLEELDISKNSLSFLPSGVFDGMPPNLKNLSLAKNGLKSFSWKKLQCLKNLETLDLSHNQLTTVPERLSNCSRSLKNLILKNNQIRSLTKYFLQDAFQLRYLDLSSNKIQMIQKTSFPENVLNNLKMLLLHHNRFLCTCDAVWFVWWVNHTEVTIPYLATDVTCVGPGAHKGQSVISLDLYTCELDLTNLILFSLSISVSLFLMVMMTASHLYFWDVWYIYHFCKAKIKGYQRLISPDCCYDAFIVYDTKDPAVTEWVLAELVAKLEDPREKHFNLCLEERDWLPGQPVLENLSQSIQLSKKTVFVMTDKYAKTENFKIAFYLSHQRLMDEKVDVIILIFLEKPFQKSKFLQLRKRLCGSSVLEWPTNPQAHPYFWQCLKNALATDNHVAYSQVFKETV

PBMC [14] = experiment: Induction of IL1-beta secretion in human PBMC after 24 hrs by Luminex Multiplex assay; type: functional, cell-based
PBMC [15] = experiment: Induction of IL2R secretion in human PBMC after 24 hrs by Luminex Multiplex assay; type: functional, cell-based
PBMC [16] = experiment: Induction of IL10 secretion in human PBMC after 24 hrs by Luminex Multiplex assay; type: functional, cell-based

Nc1ccn([C@@H]2O[C@H](COP(O)(=S)O[C@H]3[C@@H](O)[C@H](n4cnc5c(=O)[nH]c(N)nc54)O[C@@H]3COP(O)(=S)O[C@H]3[C@@H](O)[C@H](n4ccc(=O)[nH]c4=O)O[C@@H]3COCCCO)[C@@H](OP(O)(=S)OC[C@H]3O[C@@H](n4ccc(=O)[nH]c4=O)[C@H](O)[C@@H]3OP(O)(=S)OC[C@H]3O[C@@H](n4cnc5c(=O)[nH]c(N)nc54)[C@H](O)[C@@H]3OP(O)(=S)OC[C@H]3O[C@@H](n4ccc(N)nc4=O)[C@H](O)[C@@H]3OP(O)(=S)OC[C@H]3O[C@@H](n4ccc(=O)[nH]c4=O)[C@H](O)[C@@H]3OP(O)(=S)OC[C@H]3O[C@@H](n4ccc(=O)[nH]c4=O)[C@H](O)[C@@H]3OP(O)(=S)OC[C@H]3O[C@@H](n4cnc5c(=O)[nH]c(N)nc54)[C@H](O)[C@@H]3OP(O)(=S)OC[C@H]3O[C@@H](n4ccc(=O)[nH]c4=O)[C@H](O)[C@@H]3OP(O)(=S)OC[C@H]3O[C@@H](n4cnc5c(=O)[nH]c(N)nc54)[C@H](O)[C@@H]3OP(O)(=S)OCC(O)COP(O)(=S)O[C@H]3[C@@H](O)[C@H](n4cnc5c(=O)[nH]c(N)nc54)O[C@@H]3COP(O)(=S)O[C@H]3[C@@H](O)[C@H](n4ccc(=O)[nH]c4=O)O[C@@H]3COP(O)(=S)O[C@H]3[C@@H](O)[C@H](n4cnc5c(=O)[nH]c(N)nc54)O[C@@H]3COP(O)(=S)O[C@H]3[C@@H](O)[C@H](n4ccc(=O)[nH]c4=O)O[C@@H]3COP(O)(=S)O[C@H]3[C@@H](O)[C@H](n4ccc(=O)[nH]c4=O)O[C@@H]3COP(O)(=S)O[C@H]3[C@@H](O)[C@H](n4ccc(N)nc4=O)O[C@@H]3COP(O)(=S)O[C@H]3[C@@H](O)[C@H](n4cnc5c(=O)[nH]c(N)nc54)O[C@@H]3COP(O)(=S)O[C@H]3[C@@H](O)[C@H](n4ccc(=O)[nH]c4=O)O[C@@H]3COP(O)(=S)O[C@H]3[C@@H](O)[C@H](n4ccc(N)nc4=O)O[C@@H]3COP(O)(=S)O[C@H]3[C@@H](O)[C@H](n4cnc5c(=O)[nH]c(N)nc54)O[C@@H]3COP(O)(=S)O[C@H]3[C@@H](O)[C@H](n4ccc(=O)[nH]c4=O)O[C@@H]3COCCCO)[C@H]2O)c(=O)n1 (stereo partly specified)
Activity (PBMC [1]): Dose-dependent effect | Activity (PBMC [2]): Dose-dependent effect | Activity (PBMC [3]): Dose-dependent effect | Activity (Cynomolgus monkey [4]): Active | Activity (Cynomolgus monkey [5]): Active | Activity (Cynomolgus monkey [6]): Active | Activity (Cynomolgus monkey [7]): Active | Activity (Cynomolgus monkey [8]): Active | Activity (Cynomolgus monkey [9]): Active | Activity (Cynomolgus monkey [10]): Active | remaining at 10 min [11]: 78% | Activity [12]: Active | Activity [13]: inactive | Activity (PBMC [14]): Dose-dependent effect | Activity (PBMC [15]): Dose-dependent effect | Activity (PBMC [16]): Dose-dependent effect
